Measured values as given in PMC10324058 (ACS Omega, 2023).

Target: α-glucosidase enzyme (Saccharomyces cerevisiae, UniProt P53341)
Assay: Kinetic study against α-glucosidase
Format: biochemical, S. cerevisiae

Sequence of α-glucosidase enzyme (P53341 whole entry): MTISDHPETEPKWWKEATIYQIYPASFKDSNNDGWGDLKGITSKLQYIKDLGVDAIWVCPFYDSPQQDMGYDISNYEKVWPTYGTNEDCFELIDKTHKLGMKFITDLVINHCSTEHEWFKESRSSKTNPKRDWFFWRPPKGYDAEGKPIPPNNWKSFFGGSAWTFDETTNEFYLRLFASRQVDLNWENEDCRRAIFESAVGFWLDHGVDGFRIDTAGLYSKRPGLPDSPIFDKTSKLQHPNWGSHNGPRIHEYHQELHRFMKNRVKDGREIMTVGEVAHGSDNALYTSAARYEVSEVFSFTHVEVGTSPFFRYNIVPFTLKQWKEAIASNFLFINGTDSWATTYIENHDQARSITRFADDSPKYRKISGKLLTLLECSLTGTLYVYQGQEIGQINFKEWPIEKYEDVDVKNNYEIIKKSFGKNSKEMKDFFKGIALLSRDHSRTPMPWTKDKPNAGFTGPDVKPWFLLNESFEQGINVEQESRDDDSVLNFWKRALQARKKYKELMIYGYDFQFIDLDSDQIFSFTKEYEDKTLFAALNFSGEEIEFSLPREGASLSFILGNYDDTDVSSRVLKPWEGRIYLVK

Ki: 1300 nM
inhibition mode (Lineweaver–Burk plot: Km increased, Vmax unchanged): competitive inhibitor
Compound: N#CC1=C(N)Oc2c(c(=O)[nH]c3ccccc23)C1c1cccc(OCc2cn(Cc3ccccc3)nn2)c1 (centres unmarked) [8k, 2-Amino-4-(3-((1-benzyl-1H-1,2,3-triazol-4-yl)methoxy)phenyl)-5-oxo-5,6-dihydro-4H-pyrano[3,2-c]quinoline-3-carbonitrile]
